In US6413960B1, “Substituted pyrazolyl benzenesulfonamides for the treatment of asthma” (G.D. Searle & Co., priority 1993, dated 2002):
Read-outs that look alike come from different tables or passages of the source.

Assays:
Human COX II = biological target: T1, Human COX II (Homo sapiens, UniProt P35354); experiment: Assay for COX II activity in vitro (PGE2 ELISA, recombinant enzyme); assay type: biochemical; conditions: read-out: Human COX II ID50
T1 construct: A 2.0 kb fragment containing the coding region of either human or murine COX-I or human or murine COX-II; made in house; host or cells: SF9 insect cells (baculovirus, transfer vector pVL1393)
T1 sequence (P35354 18-604): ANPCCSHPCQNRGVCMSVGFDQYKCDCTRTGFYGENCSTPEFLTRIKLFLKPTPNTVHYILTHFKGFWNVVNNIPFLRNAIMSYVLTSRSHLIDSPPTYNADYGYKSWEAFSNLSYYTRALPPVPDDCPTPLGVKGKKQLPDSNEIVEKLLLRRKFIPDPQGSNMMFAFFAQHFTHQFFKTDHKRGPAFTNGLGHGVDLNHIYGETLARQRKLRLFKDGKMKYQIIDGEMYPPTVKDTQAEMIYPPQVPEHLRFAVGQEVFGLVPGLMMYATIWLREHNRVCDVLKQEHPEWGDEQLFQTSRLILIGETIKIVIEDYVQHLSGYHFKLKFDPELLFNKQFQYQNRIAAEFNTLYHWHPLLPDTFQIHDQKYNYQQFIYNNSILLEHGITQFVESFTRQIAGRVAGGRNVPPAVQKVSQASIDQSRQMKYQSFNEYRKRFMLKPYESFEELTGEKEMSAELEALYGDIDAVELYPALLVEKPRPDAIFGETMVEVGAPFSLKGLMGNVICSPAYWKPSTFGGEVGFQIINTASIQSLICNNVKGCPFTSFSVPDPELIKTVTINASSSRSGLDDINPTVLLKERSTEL
Protocol: The COX II inhibition activity of the compounds of this invention illustrated in the Examples was determined by the following methods.

Human COX I = biological target: T2, Human COX I (Homo sapiens, UniProt P23219); experiment: Assay for COX I activity in vitro (PGE2 ELISA, recombinant enzyme); assay type: biochemical
T2 construct: A 2.0 kb fragment containing the coding region of either human or murine COX-I or human or murine COX-II; made in house; host or cells: SF9 insect cells (baculovirus, transfer vector pVL1393)
T2 sequence (P23219 24-599): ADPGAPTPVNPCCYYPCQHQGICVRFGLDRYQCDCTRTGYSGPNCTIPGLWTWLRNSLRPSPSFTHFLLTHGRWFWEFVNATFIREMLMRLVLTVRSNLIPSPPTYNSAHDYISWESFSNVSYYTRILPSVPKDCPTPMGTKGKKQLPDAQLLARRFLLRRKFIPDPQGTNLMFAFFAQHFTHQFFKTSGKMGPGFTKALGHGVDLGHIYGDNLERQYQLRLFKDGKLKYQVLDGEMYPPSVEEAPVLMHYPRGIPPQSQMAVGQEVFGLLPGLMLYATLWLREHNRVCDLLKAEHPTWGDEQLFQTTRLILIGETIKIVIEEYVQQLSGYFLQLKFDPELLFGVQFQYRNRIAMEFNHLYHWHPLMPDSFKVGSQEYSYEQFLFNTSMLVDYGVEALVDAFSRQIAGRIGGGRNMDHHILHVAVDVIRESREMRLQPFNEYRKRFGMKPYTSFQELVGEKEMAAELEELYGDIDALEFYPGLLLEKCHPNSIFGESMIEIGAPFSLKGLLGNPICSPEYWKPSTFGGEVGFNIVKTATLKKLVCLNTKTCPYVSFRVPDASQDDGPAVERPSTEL

[1] = test system: Male Sprague-Dawley rats (carrageenan foot edema); conditions: oral, foot volume 3 h after carrageenan; for RAT PAW EDEMA % Inhibition (* Assay performed at 30 mg/kg body weight): 30 mg/kg body weight (values marked *)
Protocol: Rat Carrageenan Foot Pad Edema Test
Male Sprague-Dawley rats were selected in each group so that the average body weight was as close as possible. Rats were fasted with free access to water for over sixteen hours prior to the test. […] One hour later a subplantar injection of 0.1 mL of 1% solution of carrageenan/sterile 0.9% saline was administered and the volume of the injected foot was measured with a displacement plethysmometer connected to a pressure transducer with a digital indicator. Three hours after the injection of the carrageenan, the volume of the foot was again measured.

SMILES | melting point | IC50 (Human COX II) | other results
Cc1c(C(F)(F)F)nn(-c2ccc(S(N)(=O)=O)cc2)c1-c1ccccc1 [Example 201, 4-[4-Methyl-5-phenyl-3-(trifluoromethyl)-1H-pyrazol-1-yl]benzenesulfonamide] | 145 to 146 °C | < 0.1 µM | IC50 (Human COX I; read-out: Human COX I ID50): 2.2 µM
COc1c(Cl)cc(-c2cc(C(F)(F)F)nn2-c2ccc(S(N)(=O)=O)cc2)cc1Cl [Example 3, 4-[5-(3,5-Dichloro-4-methoxyphenyl)-3-(trifluoromethyl)-1H-pyrazol-1-yl]benzenesulfonamide] |  | < 0.1 µM | 
NS(=O)(=O)c1ccc(-n2nc(C(F)(F)F)c(C3CC3)c2-c2ccccc2)cc1 [Example 203, 4-[4-Cyclopropyl-5-phenyl-3-(trifluoromethyl)-1H-pyrazol-1-yl]benzenesulfonamide] | 173 to 174 °C | 27 µM | 
COc1ccc(-c2cc(C(Cl)Cl)nn2-c2ccc(S(N)(=O)=O)cc2)cc1F [Example 130, 4-[3-(Dichloromethyl)-5-(3-fluoro-4-methoxyphenyl)-1H-pyrazol-1-yl]benzenesulfonamide] | 190 to 193 °C | 3.6 µM | IC50 (Human COX I; read-out: Human COX I ID50): 12.5 µM
NS(=O)(=O)c1ccc(-n2nc(C(F)(F)F)c(Cl)c2-c2ccc(Cl)cc2)cc1 [Example 199, 4-[5-(4-Chlorophenyl)-3-(trifluoromethyl)-4-chloro-1H-pyrazol-1-yl]benzenesulfonamide] |  |  | RAT PAW EDEMA % Inhibition @ 10 mg/kg body weight [1]: 35%
NS(=O)(=O)c1ccc(-n2nc(C(F)F)cc2-c2ccc3c(c2)OCO3)cc1 [Example 82, 4-[5-(1,3-Benzodioxol-5-yl)-3-(difluoromethyl)-1H-pyrazol-1-yl]benzenesulfonamide] |  |  | RAT PAW EDEMA % Inhibition (* Assay performed at 30 mg/kg body weight) [1]: 22* %
CN(C)C=NS(=O)(=O)c1ccc(-n2nc(C#N)c(Cl)c2-c2ccc(F)cc2)cc1 [Example 259] |  | 1.1 µM | 
CC(C)Cc1nn(-c2ccc(S(N)(=O)=O)cc2)c(-c2ccccc2)c1Cl [Example 205, 4-(4-Chloro-3-isobutyl-5-phenyl-1H-pyrazol-1-yl)benzenesulfonamide] |  |  | IC50 (Human COX II; recombinant human COX II, arachidonic acid 10 μM, PGE2 ELISA): < 0.1 µM; IC50 (Human COX I; recombinant human COX I, arachidonic acid 10 μM, PGE2 ELISA, read-out: Human COX I ID50): 2.1 µM
Cc1c(-c2cc(C(F)(F)F)nn2-c2ccc(S(N)(=O)=O)cc2)ccc2c1OCO2 [Example 138, 4-[5-(4-methyl-1,3-benzodioxol-5-yl)-3-(trifluoromethyl)-1H-pyrazol-1-yl]benzenesulfonamide] |  | 0.6 µM | IC50 (Human COX I; read-out: Human COX I ID50): < 0.1 µM
CCOC(=O)C(C#N)=Cc1cc(-c2ccccc2)n(-c2ccc(S(N)(=O)=O)cc2)n1 [Example 176, Ethyl 3-[1-[4-(aminosulfonyl)phenyl]-5-phenyl-1H-pyrazol-3-yl]-2-cyano-2-propenoate] |  | 0.3 µM | 
COC(=O)c1cc(-c2ccc(Cl)cc2)n(-c2ccc(S(N)(=O)=O)cc2)n1 [Example 85, Methyl [1-(4-aminosulfonylphenyl)-5-(4-chlorophenyl)-1H-pyrazole-3-yl]carboxylate] | 227 °C | 73.6 µM | 
NS(=O)(=O)c1ccc(-n2nc(C(F)(F)F)c3c2-c2ccccc2CC3)cc1 [Example 187, 4-[4,5-Dihydro-3-(trifluoromethyl)-1H-benz[g]indazol-1-yl]benzenesulfonamide] | 257 to 258 °C |  | 
NS(=O)(=O)c1ccc(-n2nc(C(=O)Nc3cccc(Cl)c3)cc2-c2ccc(F)cc2)cc1 [Example 98, N-(3-Chlorophenyl)-[1-(4-aminosulfonylphenyl)-5-(4-fluorophenyl)-1H-pyrazol-3-yl]carboxamide] |  |  | RAT PAW EDEMA % Inhibition (* Assay performed at 30 mg/kg body weight) [1]: 2* %
C=CCc1cc(-c2cc(C(F)(F)F)nn2-c2ccc(S(N)(=O)=O)cc2)ccc1OC [Example 6, 4-[5-(3-(3-Propenyl)-4-methoxyphenyl)-3-(trifluoromethyl)-1H-pyrazol-1-yl]benzenesulfonamide] |  |  | IC50 (Human COX I): 78.7 µM
COc1ccc(-c2cc(C(F)(F)F)nn2-c2ccc(S(N)(=O)=O)cc2)cc1CC1CC1 [Example 8, 4-[5-(3-Cyclopropylmethyl-4-methoxyphenyl)-3-(trifluoromethyl)-1H-pyrazol-1-yl]benzenesulfonamide] |  | 37.7 µM | 
N#Cc1cc(-c2ccc(F)cc2)n(-c2ccc(S(N)(=O)=O)cc2)n1 [Example 117] |  |  | RAT PAW EDEMA % Inhibition @ 10 mg/kg body weight [1]: 32%
NS(=O)(=O)c1ccc(-n2ncc(Cl)c2-c2ccc(Cl)cc2)cc1 [Example 197, 4-[5-(4-Chlorophenyl)-4-chloro-1H-pyrazol-1-yl]benzenesulfonamide] | 168 to 171 °C (dec.) |  | RAT PAW EDEMA % Inhibition (* Assay performed at 30 mg/kg body weight) [1]: 45* %
NS(=O)(=O)c1ccc(-n2nc(CCCO)cc2-c2ccccc2)cc1 [Example 172, 4-[5-Phenyl-3-(3-hydroxypropyl)-1H-pyrazol-1-yl]benzenesulfonamide] |  | 4.2 µM | 
NS(=O)(=O)c1ccc(-n2nc(C(F)(F)F)c(CO)c2-c2ccccc2)cc1 [Example 204, 4-[4-hydroxymethyl-5-phenyl-3-(trifluoromethyl)-1H-pyrazol-1-yl]benzenesulfonamide] |  | 6.7 µM | 
NS(=O)(=O)c1ccc(-n2nc(CCCO)cc2-c2ccc(F)cc2)cc1 [Example 173, 4-[5-(4-Fluorophenyl)-3-(3-hydroxypropyl)-1H-pyrazol-1-yl]benzenesulfonamide] |  | 4.7 µM | 
Cc1ccc2c(c1)CCc1c(C(F)(F)F)nn(-c3ccc(S(N)(=O)=O)cc3)c1-2 [Example 188, 4-[4,5-Dihydro-7-methyl-3-(trifluoromethyl)-1H-benz[g]indazol-1-yl]benzenesulfonamide] | 215 to 218 °C |  | IC50 (Human COX I; read-out: Human COX I ID50): 19.8 µM
NS(=O)(=O)c1ccc(-n2nc(CCC(=O)O)cc2-c2ccc(F)cc2)cc1 [Example 174] | 180 to 182 °C | 3.5 µM | 
NS(=O)(=O)c1ccc(-n2nc(C=NOCc3ccccc3)cc2-c2ccc(Cl)cc2)cc1 [Example 177, 4-[5-(4-Chlorophenyl)-3-[[(phenylmethoxy)imino]methyl]-1H-pyrazol-1-yl]benzenesulfonamide] | 158 to 159 °C |  | 
CCOC(=O)c1cc(-c2ccc(Cl)cc2)n(-c2ccc(S(N)(=O)=O)cc2)n1 [Example 86, Ethyl [1-(4-aminosulfonylphenyl)-5-(4-chlorophenyl)-1H-pyrazole-3-yl]carboxylate] |  | 0.5 µM | 
NC(=O)c1cc(-c2ccc(Cl)cc2)n(-c2ccc(S(N)(=O)=O)cc2)n1 [Example 96] | 108 to 110 °C | 6.5 µM | 
CCCc1cc(-c2cc(C(F)(F)F)nn2-c2ccc(S(N)(=O)=O)cc2)ccc1OC [Example 7, 4-[5-(3-Propyl-4-methoxyphenyl)-3-(trifluoromethyl)-1H-pyrazol-1-yl]benzenesulfonamide] |  | 14 µM | 
NS(=O)(=O)c1ccc(-n2nc(C(F)F)cc2-c2cnccn2)cc1 [Example 137, 4-[5-(2-Pyrazinyl)-3-(difluoromethyl)-1H-pyrazol-1-yl]benzenesulfonamide] | 191 to 194 °C |  | 
COC(=O)c1cc(-c2cc(F)c(OC)c(F)c2)n(-c2ccc(S(N)(=O)=O)cc2)n1 [Example 84, Methyl 1-(4-aminosulfonylphenyl)-5-(3,5-difluoro-4-methoxyphenyl)-1-H-pyrazole-3-carboxylate] |  | < 0.1 µM | IC50 (Human COX I; read-out: Human COX I ID50): 65.5 µM
CN(C)C=NS(=O)(=O)c1ccc(-n2nc(C#N)c(Br)c2-c2ccccc2)cc1 [Example 260, 4-[4-Bromo-3-cyano-5-phenyl-1H-pyrazol-1-yl]-N-[(dimethylamino)methylene]benzenesulfonamide] |  | 1.1 µM | 
